ChEMBL document CHEMBL1152860, “Synthesis and antiproliferative activity of 3-amino-N-phenyl-1H-indazole-1-carboxamides” (2009)
Calls of active or inactive are those of the source. No cut-off for these calls is given here.

Columns and labels:
K562 [1] = experiment: Growth inhibition of drug-resistant human K562 cells after 48 hrs by SRB assay; assay type: functional; conditions: K562, 48 h
K562 [2] = experiment: Growth inhibition of human K562 cells after 48 hrs by SRB assay; assay type: functional; conditions: K562, 48 h
HT-29 = experiment: Growth inhibition of human HT-29 cells after 48 hrs by SRB assay; assay type: functional; conditions: HT-29, 48 h
HL-60(TB) = experiment: Growth inhibition of human HL-60(TB) cells after 48 hrs by SRB assay; assay type: functional; conditions: HL-60, 48 h
MOLT-4 = experiment: Growth inhibition of human MOLT4 cells after 48 hrs by SRB assay; assay type: functional; conditions: MOLT-4, 48 h
RPMI-8226 = experiment: Growth inhibition of human RPMI8226 cells after 48 hrs by SRB assay; assay type: functional; conditions: RPMI-8226, 48 h
SR = experiment: Growth inhibition of human SR cells after 48 hrs by SRB assay; assay type: functional
A549 = experiment: Growth inhibition of human A549 cells after 48 hrs by SRB assay; assay type: functional; conditions: A549, 48 h
EKVX = experiment: Growth inhibition of human EKVX cells after 48 hrs by SRB assay; assay type: functional
HOP-62 = experiment: Growth inhibition of human HOP62 cells after 48 hrs by SRB assay; assay type: functional; conditions: HOP-62, 48 h
HOP-92 = experiment: Growth inhibition of human HOP92 cells after 48 hrs by SRB assay; assay type: functional; conditions: HOP-92, 48 h
NCI-H226 = experiment: Growth inhibition of human NCI-H226 cells after 48 hrs by SRB assay; assay type: functional; conditions: NCI-H226, 48 h
NCI-H23 = experiment: Growth inhibition of human NCI-H23 cells after 48 hrs by SRB assay; assay type: functional; conditions: NCI-H23, 48 h
NCI-H322M = experiment: Growth inhibition of human NCI-H322M cells after 48 hrs by SRB assay; assay type: functional
NCI-H460 = experiment: Growth inhibition of human NCI-H460 cells after 48 hrs by SRB assay; assay type: functional; conditions: NCI-H460, 48 h
NCI-H522 = experiment: Growth inhibition of human NCI-H522 cells after 48 hrs by SRB assay; assay type: functional; conditions: NCI-H522, 48 h
COLO 205 = experiment: Growth inhibition of human COLO205 cells after 48 hrs by SRB assay; assay type: functional; conditions: COLO 205, 48 h
HCC 2998 = experiment: Growth inhibition of human HCC2998 cells after 48 hrs by SRB assay; assay type: functional; conditions: HCC 2998, 48 h
HCT-116 = experiment: Growth inhibition of human HCT116 cells after 48 hrs by SRB assay; assay type: functional; conditions: HCT-116, 48 h
HCT-15 = experiment: Growth inhibition of human HCT15 cells after 48 hrs by SRB assay; assay type: functional; conditions: HCT-15, 48 h
LOX IMVI = experiment: Growth inhibition of human LOXIMVI cells after 48 hrs by SRB assay; assay type: functional
Malme-3M = experiment: Growth inhibition of human MALME-3M cells after 48 hrs by SRB assay; assay type: functional
M14 = experiment: Growth inhibition of human M14 cells after 48 hrs by SRB assay; assay type: functional; conditions: M14, 48 h
SK-MEL-2 = experiment: Growth inhibition of human SK-MEL-2 cells after 48 hrs by SRB assay; assay type: functional; conditions: SK-MEL-2, 48 h
SK-MEL-28 = experiment: Growth inhibition of human SK-MEL-28 cells after 48 hrs by SRB assay; assay type: functional; conditions: SK-MEL-28, 48 h
SK-MEL-5 = experiment: Growth inhibition of human SK-MEL-5 cells after 48 hrs by SRB assay; assay type: functional; conditions: SK-MEL-5, 48 h
UACC-257 = experiment: Growth inhibition of human UACC257 cells after 48 hrs by SRB assay; assay type: functional; conditions: UACC-257, 48 h
UACC-62 = experiment: Growth inhibition of human UACC62 cells after 48 hrs by SRB assay; assay type: functional; conditions: UACC-62, 48 h
IGROV-1 = experiment: Growth inhibition of human IGROV1 cells after 48 hrs by SRB assay; assay type: functional; conditions: IGROV-1, 48 h
OVCAR-3 = experiment: Growth inhibition of human OVCAR-3 cells after 48 hrs by SRB assay; assay type: functional; conditions: OVCAR-3, 48 h
OVCAR-4 = experiment: Growth inhibition of human OVCAR4 cells after 48 hrs by SRB assay; assay type: functional; conditions: OVCAR-4, 48 h
OVCAR-5 = experiment: Growth inhibition of human OVCAR5 cells after 48 hrs by SRB assay; assay type: functional; conditions: OVCAR-5, 48 h
OVCAR-8 = experiment: Growth inhibition of human OVCAR8 cells after 48 hrs by SRB assay; assay type: functional; conditions: OVCAR-8, 48 h
SK-OV-3 = experiment: Growth inhibition of human SKOV3 cells after 48 hrs by SRB assay; assay type: functional; conditions: SK-OV-3, 48 h
786-0 = experiment: Growth inhibition of human 786-0 cells after 48 hrs by SRB assay; assay type: functional; conditions: 786-0, 48 h
A498 = experiment: Growth inhibition of human A498 cells after 48 hrs by SRB assay; assay type: functional; conditions: A498, 48 h
ACHN = experiment: Growth inhibition of human ACHN cells after 48 hrs by SRB assay; assay type: functional
CAKI-1 = experiment: Growth inhibition of human Caki1 cells after 48 hrs by SRB assay; assay type: functional; conditions: CAKI-1, 48 h
RXF 393 = experiment: Growth inhibition of human […] cells after 48 hrs by SRB assay; assay type: functional; conditions: RXF 393, 48 h
SN12C = experiment: Growth inhibition of human SN12C cells after 48 hrs by SRB assay; assay type: functional
TK-10 = experiment: Growth inhibition of human TK10 cells after 48 hrs by SRB assay; assay type: functional; conditions: TK-10, 48 h
UO-31 = experiment: Growth inhibition of human UO31 cells after 48 hrs by SRB assay; assay type: functional; conditions: UO-31, 48 h
PC-3 = experiment: Growth inhibition of human PC3 cells after 48 hrs by SRB assay; assay type: functional; conditions: PC-3, 48 h
DU-145 = experiment: Growth inhibition of human DU145 cells after 48 hrs by SRB assay; assay type: functional; conditions: DU-145, 48 h
MCF7 = experiment: Growth inhibition of human MCF7 cells after 48 hrs by SRB assay; assay type: functional; conditions: MCF7, 48 h
NCI/ADR-RES = experiment: Growth inhibition of human NCI/ADR-RES cells after 48 hrs by SRB assay; assay type: functional
MDA-MB-231 = experiment: Growth inhibition of human MDA-MB-231 cells after 48 hrs by SRB assay; assay type: functional; conditions: MDA-MB-231, 48 h
[3] = Growth inhibition of human Hs 578T cells after 48 hrs by SRB assay; assay type: functional
MDA-MB-435 = experiment: Growth inhibition of human MDA-MB-435 cells after 48 hrs by SRB assay; assay type: functional; conditions: MDA-MB-435, 48 h
BT-549 = experiment: Growth inhibition of human BT549 cells after 48 hrs by SRB assay; assay type: functional; conditions: BT-549, 48 h
T47D = experiment: Growth inhibition of human T47D cells after 48 hrs by SRB assay; assay type: functional
K562 [4] = experiment: Cell cycle arrest in human K562 cells assessed as accumulation at S phase at 42.7 uM after 24 hrs using propidium iodide staining by flow cytometry; assay type: functional, cell-based
K562 [5] = experiment: Cell cycle arrest in human K562 cells assessed as accumulation at G2/M phase at 42.7 uM after 24 hrs using propidium iodide staining by flow cytometry; assay type: functional, cell-based
KM12 = experiment: Growth inhibition of human KM12 cells after 48 hrs by SRB assay; assay type: functional; conditions: KM12, 48 h
SW-620 = experiment: Growth inhibition of human SW620 cells after 48 hrs by SRB assay; assay type: functional; conditions: SW-620, 48 h
SF-268 = experiment: Growth inhibition of human SF268 cells after 48 hrs by SRB assay; assay type: functional; conditions: SF-268, 48 h
SF-295 = experiment: Growth inhibition of human SF295 cells after 48 hrs by SRB assay; assay type: functional; conditions: SF-295, 48 h
SF-539 = experiment: Growth inhibition of human SF539 cells after 48 hrs by SRB assay; assay type: functional; conditions: SF-539, 48 h
SNB-19 = experiment: Growth inhibition of human SNB19 cells after 48 hrs by SRB assay; assay type: functional; conditions: SNB-19, 48 h
SNB-75 = experiment: Growth inhibition of human SNB75 cells after 48 hrs by SRB assay; assay type: functional; conditions: SNB-75, 48 h
U-251 = experiment: Growth inhibition of human U251 cells after 48 hrs by SRB assay; assay type: functional; conditions: U-251, 48 h

Q: Which GI50 (K562 [1]) does the source give for `CCc1nc2cc(Cl)ccc2c(=O)n1-c1n[nH]c2ccccc12` here?
A: 11.7 µM

Q: What about the GI50 (K562 [2]) of the same compound?
A: 10.7 µM

Q: Which results are given for `O=C(Nc1ccccc1OC(F)(F)F)Nc1n[nH]c2ccccc12`?
A: GI50 (HT-29): 26.1 µM; GI50 (HL-60(TB)): 17.9 µM; GI50 (K562 [2]): 42.7 µM; GI50 (MOLT-4): 59.1 µM; GI50 (RPMI-8226): 52 µM; GI50 (SR): 0.0489 µM; TGI (SR): 24 µM; CC50 (SR; read-out: LC50 (the source's name)): > 100 µM; GI50 (A549): 15.7 µM; GI50 (EKVX): 48.2 µM; GI50 (HOP-62): 19.6 µM; GI50 (HOP-92): 12.9 µM; GI50 (NCI-H226): 26.1 µM; GI50 (NCI-H23): 50 µM; GI50 (NCI-H322M): 81.6 µM; GI50 (NCI-H460): 15 µM; GI50 (NCI-H522): 33.9 µM; GI50 (COLO 205): 71.8 µM; GI50 (HCC 2998): 55.9 µM; GI50 (HCT-116): 16.2 µM; GI50 (HCT-15): 36.2 µM; GI50 (LOX IMVI): 22.5 µM; GI50 (Malme-3M): 76.9 µM; GI50 (M14): 22.5 µM; GI50 (SK-MEL-2): 81.4 µM; GI50 (SK-MEL-28): 42.2 µM; GI50 (SK-MEL-5): 28.7 µM; GI50 (UACC-257): 47.2 µM; GI50 (UACC-62): 31.7 µM; GI50 (IGROV-1): 4.59 µM; GI50 (OVCAR-3): 90.8 µM; GI50 (OVCAR-4): 37.7 µM; GI50 (OVCAR-5): 34.3 µM; GI50 (OVCAR-8): 29.6 µM; GI50 (SK-OV-3): > 100 µM; GI50 (786-0): 38.7 µM; GI50 (A498): > 100 µM; GI50 (ACHN): 31.1 µM; GI50 (CAKI-1): 31 µM; GI50 (RXF 393): 24.3 µM; GI50 (SN12C): 72.5 µM; GI50 (TK-10): 37.9 µM; GI50 (UO-31): 17.4 µM; GI50 (PC-3): 31.4 µM; GI50 (DU-145): 51.7 µM; GI50 (MCF7): 1.75 µM; GI50 (NCI/ADR-RES): 44.2 µM; GI50 (MDA-MB-231): 17.9 µM; GI50 [3]: 19.4 µM; GI50 (MDA-MB-435): 51.5 µM; GI50 (BT-549): 76.4 µM; GI50 (T47D): 37.5 µM; Activity (K562 [4]): Active; Activity (K562 [5]): Active; GI50 (KM12): 23.4 µM; GI50 (SW-620): 36.7 µM; GI50 (SF-268): 16.2 µM; GI50 (SF-295): 39 µM; GI50 (SF-539): 30.5 µM; GI50 (SNB-19): 78.3 µM; GI50 (SNB-75): 17.5 µM; GI50 (U-251): 31.1 µM
